Assay results reported in paper PMC3570346, “PET imaging of brain inflammation during early epileptogenesis in a rat model of temporal lobe epilepsy” (EJNMMI Research, 2012).

Experiment: [^18F]-PBR111 metabolite analysis in plasma (solid phase extraction)
Format: in vivo, rat
Settings: 50-min post-injection
From the text: To establish a standard curve of [^18F]-PBR111 metabolism, blood samples were obtained in four control rats (304 ± 10 g) and six KASE rats (312 ± 8 g, minor to medium SE), which were maintained under anaesthesia to mimic the conditions of the PET scan (Table 1). Animals were anaesthetised with 5% isoflurane for induction and 1% to 3% for maintenance, administered in medical oxygen. An incision was made in the inner thigh of the hind leg, and the femoral artery was exposed and loosely tied off after blunt dissection of the surrounding tissue. A polyethylene cannula filled with heparinised saline (20 IU/ml) was placed into the femoral artery and threaded 3 cm proximally.
Animals were injected intravenously with [^18F]-PBR111 (injected dose (ID) = 14.1 to 38.7 MBq). […] The line was flushed with saline, and the remaining radioactivity was measured in the line and syringe. […] Plasma samples (0.1 ml) were weighed and the radioactivity was measured in a Wallac γ-counter. […]
SPE analysis was performed on Oasis cartridges (Waters Oasis® HLB, 30 μm, 60 mg) that were preconditioned with 1 ml ethanol followed by 5 ml water. […] The radioactivity in each fraction and that remaining on the cartridge was measured with a Wallac γ-counter. Data were expressed as the percentage of unmetabolised parent compound (^18F]-PBR111) in the plasma sample. […]

CCN(CC)C(=O)Cc1c(-c2ccc(OCCC[18F])cc2)nc2ccc(Cl)cn12 [[^18F]-PBR111]
Percentage of parent compound in plasma (control animals): 20.8 ± 1.3%
Percentage of parent compound in plasma (severe SE animals): 20.1 ± 1.3%
